# Experiments:
# M. tuberculosis H37Rv [1] = test: M. tuberculosis growth inhibition dose-response (MIC50), turbidity readout; type: cell-based, Mycobacterium tuberculosis; settings: Mycobacterium tuberculosis, 240 h; H37Rv, 10 days; read-out: Antibacterial activity (MIC50) M. tuberculosis
# M. avium = test: Spectrum of activity: M. avium growth inhibition; type: cell-based; settings: Mycobacterium avium, 96 h; 4 days; read-out: Antibacterial activity (MIC50) M. avium
# Escherichia coli = test: Spectrum of activity: E. coli growth inhibition; type: cell-based; settings: Escherichia coli; LB medium, overnight; read-out: Antibacterial activity (MIC50) E. coli
# [2] = Cytotoxicity assay, HepG2 cells (CellTiter 96 AQueous One); settings: human, HepG2 cells
# M. tuberculosis H37Rv [3] = test: Bactericidal activity, CFU enumeration on agar after treatment; type: cell-based, Mycobacterium tuberculosis; settings: Mycobacterium tuberculosis, H37RV; M. tuberculosis; 1 mM; log CFU/ml reduction from initial inoculum; read-out: Bactericidal activity (log reduction) at 1 mM
# Staphylococcus aureus = test: Spectrum of activity: S. aureus growth inhibition; type: cell-based; settings: Staphylococcus aureus; LB medium, overnight; read-out: Antibacterial activity (MIC50) S. aureus
# M. bovis BCG Pasteur = test: microbe, parasite or virus in culture; type: cell-based; settings: Mycobacterium tuberculosis variant bovis BCG, BCG, read-out: Antibacterial activity (MIC50) M. bovis BCG
# M. tuberculosis = test: Growth inhibition in acidic medium (pH 6.2); type: cell-based, Mycobacterium tuberculosis; settings: Mycobacterium tuberculosis, pH 6.2; read-out: Activity (MIC50) in acidic medium (pH 6.2)
# [4] = system: human red blood cells (RBCs); test: Red blood cell lysis assay; settings: hemolysis
# M. smegmatis = test: Spectrum of activity: M. smegmatis growth inhibition; type: cell-based; settings: Mycolicibacterium smegmatis, 24 h; 1 day; read-out: Antibacterial activity (MIC50) M. smegmatis
# [5] = Cytotoxicity assay, THP-1 cells (CellTiter 96 AQueous One); settings: human
# M. abscessus = test: Spectrum of activity: M. abscessus growth inhibition; type: cell-based; settings: Mycobacteroides abscessus, 72 h; 3 days; read-out: Antibacterial activity (MIC50) M. abscessus
# M. tuberculosis H37Rv [6] = test: Mouse model of acute M. tuberculosis infection; settings: INH 25 mg/kg
# [7] = Day 42, IPA 100 mg/kg, oral gavage 6 days/week, 4 weeks
Compound,MIC50 (M. tuberculosis H37Rv [1]),MIC50 (M. avium),MIC50 (Escherichia coli),CC50 at 24 h [2],log reduction at 1000 µM (M. tuberculosis H37Rv [3]),MIC50 (Staphylococcus aureus),MIC50 (M. bovis BCG Pasteur),MIC50 (M. tuberculosis),RBCs HC50 [4],MIC50 (M. smegmatis),CC50 at 24 h [5],MIC50 (M. abscessus),"Lungs CFU log10, mean difference from drug-free control (M. tuberculosis H37Rv [6]; [7])","Spleen CFU log10, mean difference from drug-free control (M. tuberculosis H37Rv [6]; [7])",effect on bacterial load of spleen (M. tuberculosis H37Rv [6]; 4 weeks of monotherapy)
"NCc1cccc(N2CCCCC2)n1 [Fragment F17, [6-(Piperidin-1-yl)pyridin-2-yl]methanamine]",250 µM,271 µM,> 500 µM,455 µM,3.07,104 µM,345 µM,245 µM,">1,000 μM",> 500 µM,489 µM,> 500 µM,–,–,–
"CCOC(=O)c1c(N)sc(C)c1-c1ccccc1 [Fragment F19, Ethyl 2-amino-5-methyl-4-phenylthiophene-3-carboxylate]",270 µM,214 µM,> 500 µM,233 µM,1.98,344 µM,267 µM,117 µM,453 µM,491 µM,247 µM,206 µM,–,–,–
"O=C(O)c1ccc(-c2cccs2)s1 [Fragment F20, [2,2′-Bithiophene]-5-carboxylic acid]",271 µM,> 500 µM,> 500 µM,765 µM,1.98,> 500 µM,457 µM,170 µM,">1,000 μM",289 µM,974 µM,267 µM,–,–,–
"Cc1cc2cc(N)ccc2[nH]1 [Fragment F21, 2-Methyl-1H-indol-5-amine]",281 µM,> 500 µM,> 500 µM,387 µM,2.5,487 µM,398 µM,305 µM,">1,000 μM",401 µM,409 µM,> 500 µM,–,–,–
"N#Cc1ccc(O)cc1F [Fragment F22, 2-Fluoro-4-hydroxybenzonitrile]",300 µM,317 µM,202 µM,879 µM,1.6,343 µM,420 µM,140 µM,">1,000 μM",487 µM,677 µM,401 µM,–,–,–
"CNCc1ccccc1Oc1ccccc1 [Fragment F23, Methyl[(2-phenoxyphenyl)methyl]amine]",305 µM,> 500 µM,> 500 µM,789 µM,1.22,> 500 µM,347 µM,> 500 µM,">1,000 μM",> 500 µM,976 µM,> 500 µM,–,–,–
"Cc1ccc(-c2cc(C(=O)O)c(C)o2)cc1 [Fragment F24, 2-Methyl-5-(4-methylphenyl)-3-furoic acid]",316 µM,458 µM,> 500 µM,984 µM,2.02,> 500 µM,193 µM,120 µM,">1,000 μM",> 500 µM,887 µM,> 500 µM,–,–,–
"O=C(O)c1csc2ccc(Cl)cc12 [Fragment F25, 5-Chloro-1-benzothiophene-3-carboxylic acid]",319 µM,489 µM,> 500 µM,765 µM,2.1,> 500 µM,367 µM,94 µM,945 µM,98 µM,876 µM,257 µM,–,–,–
"O=C(O)c1ccc(-c2ccsc2)cc1 [Fragment F26, 4-(3-Thienyl)benzoic acid]",320 µM,> 500 µM,> 500 µM,944 µM,1.35,> 500 µM,> 500 µM,125 µM,">1,000 μM",> 500 µM,978 µM,497 µM,–,–,–
"Oc1noc2cc(Cl)ccc12 [Fragment F27, 6-Chlorobenzo[d]isoxazol-3-ol]",395 µM,> 500 µM,> 500 µM,> 1000 µM,1.05,> 500 µM,> 500 µM,210 µM,">1,000 μM",> 500 µM,777 µM,> 500 µM,–,–,–
"OCc1csc(-c2ccc(C(F)(F)F)cc2)n1 [Fragment F28, {2-[4-(Trifluoromethyl)phenyl]-1,3-thiazol-4-yl}methanol]",434 µM,325 µM,> 500 µM,> 1000 µM,1.21,> 500 µM,398 µM,215 µM,786 µM,235 µM,940 µM,253 µM,–,–,–
"Oc1ccc(Oc2ccccc2)cc1 [Fragment F29, 4-Phenoxyphenol]",439 µM,411 µM,201 µM,202 µM,1.09,348 µM,387 µM,118 µM,912 µM,250 µM,145 µM,267 µM,–,–,–
"NNC(=O)c1ccncc1 [INH, isoniazid, reference compound]",–,–,–,–,–,–,–,–,–,–,–,–,-3.82 log10 CFU,-5.49 log10 CFU,sterilized the spleen

# From PMC5826148, “Whole-Cell Screen of Fragment Library Identifies Gut Microbiota Metabolite Indole Propionic Acid as Antitubercular” (Antimicrobial Agents and Chemotherapy, 2018)
